# Data published in patent US9624167B2, “N-(4-hydroxy-4-methyl-cyclohexyl)-4-phenyl-benzenesulfonamides and N-(4-hydroxy-4-methyl-cyclohexyl)-4-(2-pyridyl)benzenesulfonamides and their therapeutic use” (PIMCO 2664 LIMITED, priority 2013, dated 2017).
# Tests used:
# Assay type in all cases: cell-based
# [1] = test system: Neutrophils; assay: Human primary leucocyte viability: neutrophils; settings: 3 μM, 24 hours
# Experimental: (§1) The effects of the reference compound (ABD735) on the viability of neutrophils, monocytes, CD4+ and CD8+ T-cells and B-lymphocytes was assessed under both resting and stimulated conditions. Resting conditions were used to assess likely effects on normal cells found in human blood, and stimulated conditions were used to assess the effects of the compound under disease conditions.
# (§2) Effects on cell viability were assessed using flow cytometry. Flow cytometry is a laser-based, biophysical technology employed in cell counting, cell sorting, and biomarker detection, by suspending cells in a stream of fluid and passing them by an electronic detection apparatus. It allows simultaneous multi-parametric analysis of the physical and chemical characteristics of up to thousands of particles per second. The sorting of cells using flow cytometry requires the use of specific cell markers. To quantify cell numbers, counting beads are used as an internal standard. […] In addition, for B- and T-lymphocytes, cell proliferation was measured using a dye known as Cell Proliferation Dye (eFluor® 450). eFluor® 450 is an organic dye which can be conjugated to cell-specific markers. […]
# (§3) The average results (n=3) for the reference compound (ABD735) were expressed as a fold change versus the average control value. […]
# [2] = test system: B-lymphocytes; assay: Human primary leucocyte viability: B-lymphocytes; settings: 3 μM
# Experimental: as §1, §2, §3
# [3] = test system: Monocytes; assay: Human primary leucocyte viability: monocytes; settings: 3 μM, 48 hours
# Experimental: as §1
# Effects on cell viability were assessed using flow cytometry. Flow cytometry is a laser-based, biophysical technology employed in cell counting, cell sorting, and biomarker detection, by suspending cells in a stream of fluid and passing them by an electronic detection apparatus. It allows simultaneous multi-parametric analysis of the physical and chemical characteristics of up to thousands of particles per second. The sorting of cells using flow cytometry requires the use of specific cell markers. To quantify cell numbers, counting beads are used as an internal standard. Counting beads are a calibrated suspension of microbeads which are added to a known volume of sample so the sample volume per bead is known. This allows the absolute determination of cell number in a sample. In addition, for B- and T-lymphocytes, cell proliferation was measured using a dye known as Cell Proliferation Dye (eFluor® 450). eFluor® 450 is an organic dye which can be conjugated to cell-specific markers. It fluoresces when excited by a laser in a manner proportional to the number of cells bound by the conjugate. Its signal therefore provides an indication of the proliferation of specific cell types.
# PBMCs (peripheral blood mononuclear cells) were collected from healthy donors (all male) and isolated by centrifugation on a layer of Ficoll Paque (GE Healthcare, UK). Cells were then resuspended (3×10^6 cells/mL) in RPMI supplemented with 10% FCS and antibiotics (penicillin 100 U/mL, streptomycin 100 μg/mL) and 1 mL of cell suspension was added to a 48-well plate, which was then incubated for 1 hour at 37° C./5% CO2. Subsequently, the supernatant was aspirated to remove non-adherent cells, which was followed by two washing steps to ensure removal of non-adhered cells. Adhered cells (monocytes) were then stimulated with either LPS (10 ng/mL), TNFα (10 ng/mL) or macrophage colony stimulating factor (M-CSF) (10 ng/mL) in the absence (control) or presence of reference compound (ABD735) (at 30, 10, 3, 1, or 0.3 μM) for 48 hours at 37° C./5% CO2. Subsequently, the plates were centrifuged and the monocytes washed in PBS before addition of PBS plus EDTA (10 mM) and incubation at 4° C. for 20 minutes to help detach the cells, which was facilitated by pipetting. […]
# as §3
smiles,measurement,setting,value
Cc1cc(S(=O)(=O)N[C@H]2CC[C@H](O)CC2)ccc1-c1ccc(F)cc1F [ABD735],Fold change in viability,[1]; Dexamethasone,0.8
same,Fold change in viability,[1]; no stimulation,1.0
same,Fold change in viability,"[2]; SAC/IL-2, 48 hours",1.1
same,Fold change in viability,"[2]; no stimulation, 48 hours",0.9
same,Fold change in viability,[3]; LPS,1.0
same,Fold change in viability,[3]; M-CSF,1.1
same,Fold change in viability,[3]; TNFα,0.5
same,Fold change in viability,[3]; no stimulation,0.7
